# Measured values from US20080153872A1, “Bis-(Coumarin) Compounds With Anti-Inflammatory Activity” (priority 2005, published 2008).
# How the values were obtained:
# human 5-LO = target: T1, human 5-LO (Homo sapiens, UniProt P09917); assay: Human 5-Lipoxygenase, 5-LO, assay in peripheral mononuclear blood cells; type: cell-based; conditions: 10 μM concentration, LTB4 readout
# T1 construct: Human peripheral mononuclear blood cells were isolated using Ficoll density separation; endogenous in cells; host or cells: human peripheral blood mononuclear cells
# T1 sequence (P09917 1-674): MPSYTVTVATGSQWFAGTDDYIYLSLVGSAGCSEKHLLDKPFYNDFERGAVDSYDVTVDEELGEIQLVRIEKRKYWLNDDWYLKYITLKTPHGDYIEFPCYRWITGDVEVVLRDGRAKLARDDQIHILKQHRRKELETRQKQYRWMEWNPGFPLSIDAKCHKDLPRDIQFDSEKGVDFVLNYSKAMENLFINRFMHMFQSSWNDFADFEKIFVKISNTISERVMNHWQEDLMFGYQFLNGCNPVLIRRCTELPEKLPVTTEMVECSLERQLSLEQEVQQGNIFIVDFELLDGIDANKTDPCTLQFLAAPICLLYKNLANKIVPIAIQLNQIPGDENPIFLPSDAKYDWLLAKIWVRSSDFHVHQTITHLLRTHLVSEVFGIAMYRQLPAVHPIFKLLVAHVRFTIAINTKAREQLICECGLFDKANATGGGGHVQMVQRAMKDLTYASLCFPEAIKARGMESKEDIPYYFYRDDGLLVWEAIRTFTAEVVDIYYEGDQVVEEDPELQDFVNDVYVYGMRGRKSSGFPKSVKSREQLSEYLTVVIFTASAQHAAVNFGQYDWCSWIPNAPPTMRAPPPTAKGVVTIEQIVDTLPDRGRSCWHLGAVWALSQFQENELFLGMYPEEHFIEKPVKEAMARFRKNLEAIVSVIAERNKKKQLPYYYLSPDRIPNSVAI
# Procedure: (§1) All compounds were dissolved in dimethyl sulfoxide (DMSO). Final concentration of the DMSO in all tests was 1% (v/v). Inhibition in all tests is considered preferred if it exceeds 50% at 10 μM concentration (or less).
# Human peripheral mononuclear blood cells were isolated using Ficoll density separation. Cells were incubated in Hanks Balanced Salt Solution (HBSS) with compounds for 15 minutes at 37° C. Substrate (arachidonic acid) was added in 20 μM final concentration and cells were incubated for another 15 minutes. LTB4 as a final product of arachidonic acid metabolism was measured using competitive enzyme immunoassay (See, e.g., Safayhi, H. et al. Planta Medica 2000, 66, 110-113) and percentage of inhibition was calculated from the levels of LTB4 in cell supernatant.
# [1] = system: Human prostanoid receptor; assay: Human prostanoid receptor assay ([3H]-PGD2 competition); type: binding; conditions: 10 μM concentration; CHO-K1
# Procedure: as §1
# Human prostanoid receptor is expressed in Chinese hamster ovary cell line, clone K1 (CHO-K1). Substances and radioactive competitor (tritium labelled Prostaglandin D2 in 1.7 nM concentration) are incubated with cells in HEPES buffer for 2 hours at 25° C. in the presence of manganese ions. Level of the bound PGD2 is measured by scintillation counting, and competition is calculated from comparing the total amount of the bound PGD2 in treated versus control cells. Prostanoids are involved in many physiological and pathological processes, from inflammation to pain.
# CD1 mice = assay: PMA induced ear oedema in CD1 mice; type: in vivo, mouse; conditions: topical, single dose of 250 or 100 μg/15 μL/ear; statistically significant vs positive control
# Procedure: Male CD1 mice (Iffa Credo, France) weighing ˜35-40 g were randomly grouped (n=8 in vehicle treated test group, dexamethasone treated control group as well as in groups treated with compounds to be assayed). Test compounds, dexamethasone as well as vehicle (Trans-phase Delivery System, containing benzyl alcohol 10%, acetone 40% and isopropanol 50%) (all from Kemika, Croatia), were administered topically to the internal surface of the left ear thirty minutes prior to administration of phorbol 12-myristate 13-acetate (PMA) (Alexis biochemicals, USA). Test compounds were administered at a single dose of 250 or 100 μg/15 μL/ear and dexamethasone at a single dose of 50 μg/15 μL/ear. Thirty minutes later, 0.01% PMA solution in acetone was applied topically to the same area of each animal in a volume of 12 μL/ear. During the treatment and challenge, animals were anaesthetized by using inhalation anaesthesia. Six hours after the challenge, animals were euthanized by asphyxiation in 100% CO2 atmosphere. For assessing the auricular oedema, 8 mm discs were cut out of left and right auricular pinna and weighed. The degree of oedema was calculated by subtracting the weight of 8 mm disc of the untreated ear from that of the treated contralateral ear.
# Balb/cJ mice = assay: LPS induced pulmonary neutrophilia in mice; type: in vivo, mouse; conditions: LPS challenged mice; i.n., i.p. or per os
# Procedure: Male Balb/cJ mice (Iffa Credo, France) weighing ˜25 g are randomly grouped into a negative control group, positive control group and groups treated with compounds to be assayed). Test compounds, as well as vehicle (DMSO+0.5% methyl-cellulose) (all from Sigma), are administered i.n., ip. or per os two hours prior to administration of lipopolysaccharide (LPS) (E. coli, serotype 0111:B4, Sigma) or two hours prior and two hours after administration of LPS. Test compounds are administered at a single dose (two hours prior the challenge) or divided into two doses (two hours prior and two hours after the challenge). LPS solution in phosphate buffered saline (PBS) (Sigma) is administered intranasally in volume of 60 μL at concentration of 33,33 μg/mL, to all experimental groups except the negative control group, which received the same volume (60 μL) of vehicle PBS. During the challenge, animals were anaesthetized by using intraperitoneal anaesthesia. Animals are euthanized by i.p. anesthesia overdose approximately 24 hours after application of LPS to obtain bronchoalveolar lavage fluid (BALF), which is used to determine total protein concentration as well as concentrations of cytokines, such as IL-1β and TNF-α, absolute number of cells, and percentage of neutrophils in BALF. Bronchoalveolar lavage (BAL) is performed by infusing 1 mL of PBS divided into 3 separate volumes (0.4, 0.3 and 0.3 ml) through trachea into the lungs. The fluid is immediately withdrawn and the cell suspension stored into previously prepared 1.5 mL Eppendorf tube. Bronchoalveolar lavage fluid (BALF) is then centrifuged at […] for 5 min (4° C.). Cells are resuspended in 700 μL of PBS. To prepare cytospins, 320 μL of suspension is centrifuged at 250 rpm for 10 min (Cytospin-3, Shandon Instruments). Cells are stained with Dif-Quik (Dade Behring) to determine percentage of neutrophils by counting of at least 200 cells. The remaining resuspended cells are used for total cell count in BALF analysis (Sysmex SF 3000). […] Accumulation of granulocytes and mononuclear cells in peribronclhial (PB) and perivascular (PV) lung tissue areas and alveolar spaces is monitored.
# Results can be expressed as (I) decrease of absolute cell number per mL in BALF, (II) decrease of number of neutrophils per mL in BALF, (III) reduction of relative number (percentage) of neutrophils in BALF, (IV) reduction of cytokine concentrations in BALF, as well as (V) suppression of accumulation of granulocytes and mononuclear cells in peribronchial (PB) and perivascular (PV) lung tissue areas and in alveolar spaces by pathohistological scoring of treated animals compared to positive control (LPS stimulated, but untreated animals).
smiles,measurement,setting,value
CC(=O)C(c1c(O)c2cccc(C(C)C)c2oc1=O)c1c(O)c2cccc(C(C)C)c2oc1=O [Example 19],inhibition of human 5-LO,human 5-LO,significantly relevant activity
same,"human prostanoid receptor, competition with tritium labelled PGD2",[1],significantly relevant activity
same,suppression of ear oedema,CD1 mice,considered active
same,reduction of percentage of neutrophils and/or their total number in BALF and/or by histological scoring,Balb/cJ mice,statistically significant reduction
CC(C)c1cccc2c(O)c(C(C(=O)OCCO)c3c(O)c4cccc(C(C)C)c4oc3=O)c(=O)oc12 [Example 50],inhibition of human 5-LO,human 5-LO,significantly relevant activity
same,"human prostanoid receptor, competition with tritium labelled PGD2",[1],significantly relevant activity
same,suppression of ear oedema,CD1 mice,considered active
same,reduction of percentage of neutrophils and/or their total number in BALF and/or by histological scoring,Balb/cJ mice,statistically significant reduction
CC(C)c1cccc2c(O)c(C(CO)c3c(O)c4cccc(C(C)C)c4oc3=O)c(=O)oc12 [Example 30],inhibition of human 5-LO,human 5-LO,significantly relevant activity
same,"human prostanoid receptor, competition with tritium labelled PGD2",[1],significantly relevant activity
same,suppression of ear oedema,CD1 mice,considered active
same,reduction of percentage of neutrophils and/or their total number in BALF and/or by histological scoring,Balb/cJ mice,statistically significant reduction
